Test results reported in ChEMBL document CHEMBL5579818, “Identification of 3-(9H-carbazol-9-yl)-2-(1,3-dioxoisoindolin-2-yl)propanoic acids as promising DNMT1 inhibitors” (Eur J Med Chem, 2024).
Active and inactive are the calls of the source. The rule behind the calls is not given here.

How the values were obtained:
[1] = test system: K562; test: Upregulation of TNFR-1 expression in human K562 cells; format: functional, cell-based
[2] = biological target: T1, DNA (cytosine-5)-methyltransferase 1 (Homo sapiens, UniProt P26358); test: Binding affinity to human DNMT1 expressed in Escherichia coli assessed as equilibrium dissociation constant by SPR analysis
[3] = test system: SiHa; test: Antiproliferative activity against human SiHa cells incubated for 48 hrs by MTT assay; format: functional, cell-based
[4] = test system: K562; test: Upregulation of CDKN1A/P21 expression in human K562 cells; format: functional, cell-based
[5] = test system: K562; test: Induction of cell cycle arrest in human K562 cells assessed as G0-G1 phase cells at 20 uM incubated for 48 hrs by PI staining based flow cytometry assay (reference value: 33.58 to 35.82%); format: functional
[6] = test system: K562; test: Induction of apoptosis in human K562 cells assessed as necrotic cells at 40 uM incubated for 48 hrs by Annexin-V/PI staining based flow cytometry assay (reference value: 0.34%); format: functional
[7] = test system: K562; test: Induction of cell cycle arrest in human K562 cells assessed as S phase cells at 40 uM incubated for 48 hrs by PI staining based flow cytometry assay (reference value: 24.10 to 26.83%); format: functional
[8] = test system: A2780; test: Antiproliferative activity against human A2780 cells incubated for 48 hrs by MTT assay; format: functional, cell-based; conditions: A2780, 48 h
[9] = test system: HeLa; test: Antiproliferative activity against human HeLa cells incubated for 48 hrs by MTT assay; format: functional, cell-based
[10] = test system: K562; test: Induction of apoptosis in human K562 cells assessed as late apoptotic cells at 20 uM incubated for 48 hrs by Annexin-V/PI staining based flow cytometry assay (reference value: 3.73%); format: functional
[11] = test system: K562; test: Induction of apoptosis in human K562 cells assessed as early apoptotic cells at 20 uM incubated for 48 hrs by Annexin-V/PI staining based flow cytometry assay (reference value: 3.18%); format: functional
[12] = test system: K562; test: Induction of cell cycle arrest in human K562 cells assessed as S phase cells at 20 uM incubated for 48 hrs by PI staining based flow cytometry assay (reference value: 24.10 to 26.83%); format: functional
[13] = test system: K562; test: Induction of apoptosis in human K562 cells assessed as late apoptotic cells at 40 uM incubated for 48 hrs by Annexin-V/PI staining based flow cytometry assay (reference value: 3.73%); format: functional
[14] = test system: K562; test: Induction of cell cycle arrest in human K562 cells assessed as S phase cells at 10 uM incubated for 48 hrs by PI staining based flow cytometry assay (reference value: 24.10 to 26.83%); format: functional
[15] = test system: K562; test: Induction of apoptosis in human K562 cells assessed as necrotic cells at 20 uM incubated for 48 hrs by Annexin-V/PI staining based flow cytometry assay (reference value: 0.34%); format: functional
[16] = test system: K562; test: Induction of apoptosis in human K562 cells assessed as early apoptotic cells at 10 uM incubated for 48 hrs by Annexin-V/PI staining based flow cytometry assay (reference value: 3.18%); format: functional
[17] = test system: K562; test: Induction of cell cycle arrest in human K562 cells assessed as G0-G1 phase cells at 40 uM incubated for 48 hrs by PI staining based flow cytometry assay (reference value: 33.58 to 35.82%); format: functional
[18] = test system: K562; test: Induction of apoptosis in human K562 cells assessed as early apoptotic cells at 40 uM incubated for 48 hrs by Annexin-V/PI staining based flow cytometry assay (reference value: 3.18%); format: functional
[19] = test system: K562; test: Induction of cell cycle arrest in human K562 cells assessed as G2/M phase cells at 40 uM incubated for 48 hrs by PI staining based flow cytometry assay (reference value: 37.35 to 45.32%); format: functional
[20] = test system: K562; test: Induction of cell cycle arrest in human K562 cells assessed as G0-G1 phase cells at 10 uM incubated for 48 hrs by PI staining based flow cytometry assay (reference value: 33.58 to 35.82%); format: functional
[21] = test system: K562; test: Induction of apoptosis in human K562 cells assessed as necrotic cells at 10 uM incubated for 48 hrs by Annexin-V/PI staining based flow cytometry assay (reference value: 0.34%); format: functional
[22] = test system: K562; test: Induction of cell cycle arrest in human K562 cells assessed as G2/M phase cells at 20 uM incubated for 48 hrs by PI staining based flow cytometry assay (reference value: 37.35 to 45.32%); format: functional
[23] = test system: K562; test: Induction of apoptosis in human K562 cells assessed as viable cells at 20 uM incubated for 48 hrs by Annexin-V/PI staining based flow cytometry assay (reference value: 92.12%); format: functional; conditions: read-out: Activity
[24] = test system: K562; test: Antiproliferative activity against human K562 cells incubated for 48 hrs by MTT assay; format: functional, cell-based; conditions: K562, 48 h
[25] = test system: K562; test: Upregulation of TRAIL-R2/Dr5 expression in human K562 cells; format: functional, cell-based
[26] = test system: K562; test: Induction of apoptosis in human K562 cells assessed as viable cells at 40 uM incubated for 48 hrs by Annexin-V/PI staining based flow cytometry assay (reference value: 92.12%); format: functional; conditions: read-out: Activity
[27] = test system: K562; test: Induction of apoptosis in human K562 cells assessed as late apoptotic cells at 10 uM incubated for 48 hrs by Annexin-V/PI staining based flow cytometry assay (reference value: 3.73%); format: functional
[28] = biological target: T1, DNA (cytosine-5)-methyltransferase 1; test: Inhibition of DNMT1 (unknown origin) using semi-methylated DNA substrate preincubated for 15 mins followed by substrate and [3H-SAM] addition and measured after 60 mins by microbeta scintillation counting assay
[29] = test system: K562; test: Induction of apoptosis in human K562 cells assessed as viable cells at 10 uM incubated for 48 hrs by Annexin-V/PI staining based flow cytometry assay (reference value: 92.12%); format: functional; conditions: read-out: Activity
[30] = test system: K562; test: Induction of cell cycle arrest in human K562 cells assessed as G2/M phase cells at 10 uM incubated for 48 hrs by PI staining based flow cytometry assay (reference value: 37.35 to 45.32%); format: functional
[31] = biological target: T1, DNA (cytosine-5)-methyltransferase 1; test: Binding affinity to human DNMT1 expressed in Escherichia coli assessed as binding constant by SPR analysis
[32] = biological target: T1, DNA (cytosine-5)-methyltransferase 1; test: Binding affinity to human DNMT1 expressed in Escherichia coli assessed as response unit at 10 uM by SPR analysis
[33] = biological target: T1, DNA (cytosine-5)-methyltransferase 1; test: Inhibition of DNMT1 (unknown origin) at 250 uM using semi-methylated DNA substrate preincubated for 15 mins followed by substrate and [3H-SAM] addition and measured after 60 mins by microbeta scintillation counting assay relative to control; conditions: time 75.0 min
[34] = test system: HeLa; test: Antiproliferative activity against human HeLa cells at 100 uM incubated for 48 hrs by MTT assay; format: functional
[35] = test system: A2780; test: Antiproliferative activity against human A2780 cells at 100 uM incubated for 48 hrs by MTT assay; format: functional
[36] = test system: K562; test: Antiproliferative activity against human K562 cells at 100 uM incubated for 48 hrs by MTT assay; format: functional
[37] = biological target: T1, DNA (cytosine-5)-methyltransferase 1; test: Inhibition of human DNMT1 at 500 uM relative to control
[38] = test system: SiHa; test: Antiproliferative activity against human SiHa cells at 100 uM incubated for 48 hrs by MTT assay; format: functional

T1 sequence (P26358 whole entry): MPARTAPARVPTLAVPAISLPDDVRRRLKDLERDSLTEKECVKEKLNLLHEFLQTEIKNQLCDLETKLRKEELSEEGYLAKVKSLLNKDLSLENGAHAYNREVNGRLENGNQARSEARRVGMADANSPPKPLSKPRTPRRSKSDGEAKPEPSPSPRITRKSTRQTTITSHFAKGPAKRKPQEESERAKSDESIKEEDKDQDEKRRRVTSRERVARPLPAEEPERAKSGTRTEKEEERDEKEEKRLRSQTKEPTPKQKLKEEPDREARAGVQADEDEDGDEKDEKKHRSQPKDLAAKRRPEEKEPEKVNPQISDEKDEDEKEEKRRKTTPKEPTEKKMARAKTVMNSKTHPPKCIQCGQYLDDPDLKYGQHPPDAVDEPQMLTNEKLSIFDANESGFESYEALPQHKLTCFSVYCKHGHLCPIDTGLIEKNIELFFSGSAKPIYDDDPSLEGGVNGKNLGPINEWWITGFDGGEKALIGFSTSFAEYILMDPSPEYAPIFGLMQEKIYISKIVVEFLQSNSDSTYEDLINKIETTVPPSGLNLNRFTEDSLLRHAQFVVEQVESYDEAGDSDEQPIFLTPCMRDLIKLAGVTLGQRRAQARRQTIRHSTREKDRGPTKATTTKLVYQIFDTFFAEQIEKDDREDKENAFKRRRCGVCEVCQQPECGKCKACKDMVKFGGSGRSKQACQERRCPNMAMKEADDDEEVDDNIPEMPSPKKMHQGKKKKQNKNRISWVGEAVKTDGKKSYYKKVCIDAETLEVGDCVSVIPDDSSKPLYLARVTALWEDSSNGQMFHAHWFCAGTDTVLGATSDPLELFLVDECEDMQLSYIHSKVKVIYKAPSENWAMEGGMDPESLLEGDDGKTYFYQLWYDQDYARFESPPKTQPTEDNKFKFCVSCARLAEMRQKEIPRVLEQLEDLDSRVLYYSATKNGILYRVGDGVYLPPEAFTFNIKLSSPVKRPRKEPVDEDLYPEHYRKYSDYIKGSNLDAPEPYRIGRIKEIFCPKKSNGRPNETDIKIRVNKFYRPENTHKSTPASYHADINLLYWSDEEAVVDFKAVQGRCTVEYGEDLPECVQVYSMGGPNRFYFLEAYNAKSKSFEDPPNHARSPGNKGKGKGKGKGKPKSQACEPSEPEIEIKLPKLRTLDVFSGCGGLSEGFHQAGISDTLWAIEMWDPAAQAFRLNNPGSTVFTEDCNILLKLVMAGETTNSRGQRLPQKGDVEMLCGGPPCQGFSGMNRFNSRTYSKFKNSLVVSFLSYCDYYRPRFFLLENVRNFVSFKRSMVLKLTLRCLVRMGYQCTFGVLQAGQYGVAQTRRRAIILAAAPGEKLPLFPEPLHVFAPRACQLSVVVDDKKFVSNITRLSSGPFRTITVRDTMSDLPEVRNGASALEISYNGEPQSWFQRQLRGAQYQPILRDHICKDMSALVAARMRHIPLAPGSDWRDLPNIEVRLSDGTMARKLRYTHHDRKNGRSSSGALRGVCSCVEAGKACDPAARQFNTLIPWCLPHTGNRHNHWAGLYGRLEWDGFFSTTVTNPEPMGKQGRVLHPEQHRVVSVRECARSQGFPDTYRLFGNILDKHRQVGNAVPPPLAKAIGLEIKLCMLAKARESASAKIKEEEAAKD

SMILES: CC(C)(C)c1ccc2c(c1)c1cc(C(C)(C)C)ccc1n2C[C@@H](C(=O)O)N1C(=O)c2ccccc2C1=O
- Activity [1]: Active
- Kd [2]: 0.679 µM
- IC50 [3]: 25.6 µM
- Activity [4]: Active
- Activity [5]: 54.77%
- Activity [6]: 1.47%
- Activity [7]: 22.3%
- IC50 [8]: 32.9 µM
- IC50 [9]: 66.9 µM
- Activity [10]: 6.5%
- Activity [11]: 2.78%
- Activity [12]: 21.5%
- Activity [13]: 94.09%
- Activity [14]: 26.12%
- Activity [15]: 0.56%
- Activity [16]: 1.39%
- Activity [17]: 61.14%
- Activity [18]: 1.36%
- Activity [19]: 16.56%
- Activity [20]: 34.61%
- Activity [21]: 0.37%
- Activity [22]: 23.67%
- viability at 20 µM [23]: 90.2%
- IC50 [24]: 15.8 µM
- Activity [25]: Active
- viability at 40 µM [26]: 3.07%
- Activity [27]: 2.07%
- IC50 [28]: 8.15 µM
- viability at 10 µM [29]: 86.2%
- Activity [30]: 38.67%

SMILES: O=C(O)C(Cn1c2ccc(I)cc2c2cc(I)ccc21)N1C(=O)c2ccccc2C1=O (racemic) [listing 1 of 2 here]
- Kd [2]: 0.145 µM

SMILES: O=C(O)C(Cn1c2ccc(I)cc2c2cc(I)ccc21)N1C(=O)c2ccccc2C1=O (racemic) [listing 2 of 2 here]
- Ka [31]: 239000 M⁻¹ s⁻¹
- Activity [32]: 57.9 RU
- inhibition [33]: > 75%

SMILES: CC(C)(C)c1ccc2c(c1)c1cc(C(C)(C)C)ccc1n2CC(C(=O)O)N1C(=O)c2ccccc2C1=O (racemic)
- Activity [34]: 79%
- Kd [2]: 0.841 µM
- IC50 [3]: 43.3 µM
- Activity [32]: 52.7 RU
- IC50 [8]: 36.6 µM
- Activity [35]: 98%
- inhibition [33]: > 75%
- IC50 [9]: 60.5 µM
- Activity [36]: 99%
- IC50 [24]: 22.5 µM

SMILES: O=C(O)C(Cn1c2ccccc2c2ccccc21)N1C(=O)c2ccccc2C1=O (racemic)
- Activity [34]: <5%
- inhibition [37]: < 10%
- Activity [32]: 25.1 RU
- Activity [35]: <5%
- inhibition [33]: < 50%
- Activity [38]: <5%
- Activity [36]: <5%
